According to patent publication US20050277586A1, “Peptide chemically modified with polyethylene glycol” (priority 2002, published 2005):

Legend:
[1] = tested on: Vero cell, T24 cell, A549 cell; assay: Nucleic acid-introducing ability, luciferase-expressing plasmid (procedure of Example 9); type: cell-based
From the text: A cell line established from monkey kidney (Vero cell) and a human bladder cancer cell (T24 cell) purchased from American Type Culture Collection (ATCC) and human lung cancer cell (A549 cell) purchased from Dainippon Pharmaceutical were inoculated on a 24 well culture plate (manufactured by NALGEN NUNC) at 1×10^5 cells/well. Vero cell and A549 cell were cultivated in DMEM (manufactured by Life Technologies Oriental) supplemented with 10% fetal bovine serum (hereinafter referred to as FBS, manufactured by NICHIREI), and T24 cell was cultivated in McCoy's 5a (manufactured by Life Technologies Oriental) supplemented with 10% FBS in 5% CO2 atmosphere at 37° C. for 24 hours. After removing the medium, opti-MEM (manufactured by Life Technologies Oriental) prepared to have the concentration of the luciferase-expressing plasmid prepared in Example 7 of 1 μg/mL and the concentration of the peptide prepared in Example 1 of 1.25, 2.5, or 5 μM was added, and the cells were cultivated for 5 hours. Next, in the case of Vero cell and A549 cell, the culture medium was replaced with DMEM supplemented with 10% FBS, and in the case of T24 cell, the medium was replaced with McCoy's 5a supplemented with 10% FBS, and cultivation was continued in 5% CO2 atmosphere and at 37° C. for another 24 hours. The luciferase activity expressed in the cell was then measured by the method instructed in luciferase assay system (manufactured by Promega). To be more specific, the cells were washed with phosphate-buffered saline (hereinafter referred to as PBS, manufactured by SIGMA), and the cells were lyzed with Passive Lysis Buffer attached to the kit.
(§1) 20 μL of this cell lysate and 100 μL of the Luciferase Assay Reagent II attached to the kit was added to a fluorescence-measuring plate (Microlite™ 1 plate, manufactured by Dynatech), and after mixing, fluorescence was measured for 1 second by using a multilabel counter (ARVO™ SY1420 MULTILABEL COUNTER, manufactured by Wallac Beltold.
Concentration of the protein in the cell lysate was measured by mixing 8 μL of the cell lysate and 200 μL of the protein assay solution (manufactured by Biorad) with 792 μL of ultrapure water in a disposable cuvette (UV fluorescent cuvette A204X, manufactured by Funakoshi), allowing the mixture to stand for 5 minutes at room temperature, and measuring the absorption at 595 nm with a spectrophotometer (DU640, manufactured by Beckman). Bovine serum albumin (BSA) was used for the standard protein. By using the thus obtained results, count per 1 second per 1 mg of protein of the cell lysate was calculated to thereby use the count as the luciferase activity, and the highest count in the three conditions of different peptide concentration was designated the gene-introducing ability of the peptide.

[2] = Measurement of turbidity in BSA (absorbance at 600 nm); type: physicochemical; conditions: 1% BSA, peptide 50 μM
Procedure: The solutions were evaluated for their absorbance at a wavelength of 600 nm by using a spectrophotometer (DU640, manufactured by Beckman).

Vero cell [3] = assay: Accumulation of FITC-labeled oligonucleotide in cell nucleus; type: cell-based, monkey; conditions: 300 nM FITC-labeled oligonucleotide, 2.5 μM peptide
Procedure: Vero cell was inoculated in the well of a chamber slide (Lab-Tek II chamber slide, size 4 well, manufactured by NALGEN NUNC) at a rate of 1×10^5 cells/well, and the cells were cultivated in DMEM supplemented with 10% FBS in 5% CO2 atmosphere at 37° C. for 24 hours. After removing the medium, opti-MEM containing 300 nM FITC-labeled oligonucleotide prepared in Example 6 and 2.5 μM of the peptide of SEQ ID NO: 1 prepared in Example 1 was added, and the cultivation was continued for 4 hours. The medium was replaced with DMEM supplemented with 10% FBS, and the cultivation was continued in 5% CO2 atmosphere at 37° C. for another 24 hours. After washing the cell with PBS, the cells were fixed by using PBS containing 4% paraformaldehyde, and accumulation of FITC-labeled oligonucleotide in the cell nucleus was confirmed by using a fluorescence microscope (AH-3, manufactured by Olympus). […] On the other hand, accumulation of FITC-labeled oligonucleotide in the cell was not confirmed in the absence of the peptide of SEQ ID NO: 1.

A549 cell = assay: Luciferase-expressing plasmid introduction into A549 cell; type: cell-based, human
From the text: (§2) A cell line established from monkey kidney (Vero cell) and a human bladder cancer cell (T24 cell) purchased from American Type Culture Collection (ATCC) and human lung cancer cell (A549 cell) purchased from Dainippon Pharmaceutical were inoculated on a 24 well culture plate (manufactured by NALGEN NUNC) at 1×10^5 cells/well. Vero cell and A549 cell were cultivated in DMEM (manufactured by Life Technologies Oriental) supplemented with 10% fetal bovine serum (hereinafter referred to as FBS, manufactured by NICHIREI), and T24 cell was cultivated in McCoy's 5a (manufactured by Life Technologies Oriental) supplemented with 10% FBS in 5% CO2 atmosphere at 37° C. for 24 hours. […] The luciferase activity expressed in the cell was then measured by the method instructed in luciferase assay system (manufactured by Promega). […]
as §1, with “Beltold. […]” for “Beltold.”

Vero cell [4] = assay: Luciferase-expressing plasmid introduction into Vero cell; type: cell-based, monkey
From the text: as §2
as §1, with “Beltold. […]” for “Beltold.”

T24 cell = assay: Luciferase-expressing plasmid introduction into T24 cell; type: cell-based, human
From the text: as §2
as §1, with “Beltold. […]” for “Beltold.”

[5] = Measurement of CD spectrum with and without SDS; type: physicochemical; conditions: 10 mM phosphate buffer pH 7, 50 mM NaCl, 35° C.
Procedure: The peptide dissolved in 10 mM phosphate buffer (pH=7) containing 50 mM NaCl was evaluated for its CD spectrum in the presence and in the absence of 5 mM SDS by using a circular dichroism spectrophotometer (J-500A, manufactured by JASCO). The cell length was 1 mm. The measurement was conducted at 35° C. for 6 times in total.

- OD 600 [2]: 0.03
Sequence: TRYLRIHPRSWVHQIALRLRYLRIHPRSWVHQIALRS [SEQ ID NO: 1]
- Nucleic acid-introducing ability ([1]; luciferase plasmid 1 μg/mL, highest count of peptide 1.25, 2.5 or 5 μM, cell line not stated): 3+ (1,000,000 to less than 10,000,000)
- Ability of introducing the nucleic acid into a cell ([1]; procedure of Example 9): found to have the ability of introducing the nucleic acid into a cell
- Accumulation of FITC-labeled oligonucleotide in the cell nucleus (Vero cell [3]): FITC-labeled oligonucleotide was accumulated in the cell nucleus
- Luciferase activity (A549 cell): 8.7 × 10^4 cps/mg protein
- Luciferase activity (Vero cell [4]): 2.5 × 10^6 cps/mg protein
- Luciferase activity (T24 cell): 7.8 × 10^3 cps/mg protein
- α-helix structure in CD spectroscopy in the presence of SDS ([5]; 5 mM SDS): are in α-helix structure in the presence of SDS
- α-helix structure in CD spectroscopy in the absence of SDS ([5]; no SDS): do not take α-helix structure in an aqueous solution solely containing an inorganic salt
